In patent US20250382303A1, “NOVEL COMPOUND AS NADPH OXIDASE 2 INHIBITOR AND PHARMACEUTICAL COMPOSITION CONTAINING SAME” (DONGGUK UNIVERSITY INDUSTRY-ACADEMIC COOPERATION FOUNDATION, priority 2022, published 2025):
pIC50: −log10 of the molar value.

These molecules were tested against T1, NOX2 (Homo sapiens, UniProt P04839) (assay: NOX2 activity assay: PMA-induced ROS in ATRA-differentiated HL-60 cells (WST-1 or Amplex Red/HRP probe)). Details: WST-1; comment on Table 1.
T1 construct: Used for the NOX2 activity assay was human leukemia 60 cells (HL-60), which are widely, universally used to assess NOX2 activity; endogenous in cells
T1 sequence (P04839 2-570 limits assumed): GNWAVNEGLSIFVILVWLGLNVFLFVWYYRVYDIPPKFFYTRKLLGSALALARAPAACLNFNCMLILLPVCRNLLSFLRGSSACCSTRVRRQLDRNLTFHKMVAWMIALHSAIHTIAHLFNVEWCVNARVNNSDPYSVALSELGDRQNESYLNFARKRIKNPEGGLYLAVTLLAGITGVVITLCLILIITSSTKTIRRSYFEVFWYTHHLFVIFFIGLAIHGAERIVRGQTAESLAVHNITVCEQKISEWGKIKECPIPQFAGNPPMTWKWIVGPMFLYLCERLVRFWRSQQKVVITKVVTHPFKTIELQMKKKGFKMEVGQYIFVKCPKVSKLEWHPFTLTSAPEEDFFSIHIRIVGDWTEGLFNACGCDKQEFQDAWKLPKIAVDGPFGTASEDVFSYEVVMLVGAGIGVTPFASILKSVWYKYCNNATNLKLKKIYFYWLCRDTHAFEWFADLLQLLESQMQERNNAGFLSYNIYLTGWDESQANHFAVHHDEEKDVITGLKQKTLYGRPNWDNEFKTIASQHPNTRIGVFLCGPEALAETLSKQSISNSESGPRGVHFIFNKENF
T1 sequence (P13498 2-195 partner limits assumed): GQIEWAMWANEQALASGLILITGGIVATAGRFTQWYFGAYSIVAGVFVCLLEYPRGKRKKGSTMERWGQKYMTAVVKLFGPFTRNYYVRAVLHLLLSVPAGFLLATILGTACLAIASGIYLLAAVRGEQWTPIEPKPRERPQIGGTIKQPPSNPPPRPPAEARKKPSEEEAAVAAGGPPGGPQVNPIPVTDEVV
Type: cell-based
Description: NOX activity was evaluated by measuring the reactive oxygen species (ROS) produced by NOX. The probes that were used to measure ROS were water soluble tetrazolium-1 (WST-1, superoxide-specific colorimetric probe) and Amplex Red/horseradish peroxidase (AR/HRP, hydrogen peroxide-specific fluorometric probe), and the concentration of the probes used was […]. For WST-1, the change in the absorbance at 450 nm was measured, and, for AR, the change in fluorescence signals was measured at 560 nm and 585 nm, respectively for excitation wavelength (Ex) and emission wavelength (Em). The optical signal was measured using the SpectraMax M3 microplate reader from Molecular Devices at 37° C. for 60 minutes.
Used for the NOX2 activity assay was human leukemia 60 cells (HL-60), which are widely, universally used to assess NOX2 activity. 1×10^5 cells/mL of HL-60 were treated with […] all-trans-retinoic acid (ATRA) for 4 days to induce differentiation. Differentiated HL-60 (diff. HL-60) was centrifuged at 200 g for 5 minutes and washed twice with HBSS. Differentiation was induced to reach 3×10^4 cells/well on a 96-well plate (diff). HL-60 was seeded. The test material was treated to cells and left in a 37° C. incubator for 60 minutes. As a control group, the same concentration of DMSO, which is the vehicle of the test material, was used. 200 ng/mL phorbol 12-myristate 13-acetate (PMA) was used as the NOX2 activator, and the production amount of ROS induced by PMA was measured for 60 minutes. […] diphenyleneiodonium (DPI), which is well known to inhibit NOX, was used as a positive control group to evaluate whether the NOX2 activity tester properly operates.

| NOX2 inhibitory ability, verbal rating | SMILES |
| --- | --- |
| excellent inhibitory ability | CC12CC(NC(=O)N1c1cccc(C(=O)N3CCc4ccccc4C3)c1)c1cc(C(F)(F)F)ccc1O2 (stereo not shown) [Compound 25b, 2-Methyl-3-(3-(1,2,3,4-tetrahydroisoquinoline-2-carbonyl)phenyl)-8-(trifluoromethyl)-5,6-dihydro-2H-2,6-methanobenzo[g][1,3,5]oxadiazocin-4(3H)-one] |
| excellent inhibitory ability | COc1ccc2c(c1)C1CC(C)(O2)N(c2cccc(C(=O)N3CCc4ccccc4C3)c2)C(=O)N1 (stereo not shown) [Compound 25e, 8-Methoxy-2-methyl-3-(3-(1,2,3,4-tetrahydroisoquinoline-2-carbonyl)phenyl)-5,6-dihydro-2H-2,6-methanobenzo[g][1,3,5]oxadiazocin-4(3H)-one] |

Same assay, conditions: WST-1 probe; differentiated HL-60, 200 ng/mL PMA; read-out: Inhibitory ability (NOX2)

| pIC50 | SMILES |
| --- | --- |
| < 5.00 | COc1cc2c(cc1OC)CN(C(=O)c1cccc(N3C(=O)NC4CC3(C)Oc3ccccc34)c1)CC2 (racemic) [Compound 8b, 3-(3-(6,7-Dimethoxy-1,2,3,4-tetrahydroisoquinoline-2-carbonyl)phenyl)-2-methyl-5,6-dihydro-2H-2,6-methanobenzo[g][1,3,5]oxadiazocin-4(3H)-one] |
| < 5.00 | CC12CC(NC(=O)N1c1cccc(C(=O)NCc3ccc(C(F)(F)F)cc3)c1)c1ccccc1O2 (racemic) [Compound 8c, 3-(2-Methyl-4-oxo-5,6-dihydro-2H-2,6-methanobenzo[g][1,3,5]oxadiazocin-3(4H)-yl)-N-(4-(trifluoromethyl)benzyl)benzamide] |
| 5.00 to 6.00 | CC12CC(NC(=O)N1c1cccc(C(=O)NCCc3ccc(C(F)(F)F)cc3)c1)c1ccccc1O2 (racemic) [Compound 8d, 3-(2-Methyl-4-oxo-5,6-dihydro-2H-2,6-methanobenzo[g][1,3,5]oxadiazocin-3(4H)-yl)-N-(4-(trifluoromethyl)phenethyl)benzamide] |
| < 5.00 | CC12CC(NC(=O)N1c1cccc(C(=O)NC3Cc4ccccc4C3)c1)c1ccccc1O2 (racemic) [Compound 8e, N-(2,3-Dihydro-1H-inden-2-yl)-3-(2-methyl-4-oxo-5,6-dihydro-2H-2,6-methanobenzo[g][1,3,5]oxadiazocin-3(4H)-yl)benzamide] |
| < 5.00 | CC12CC(NC(=O)N1c1cccc(C(=O)NCc3cccnc3)c1)c1ccccc1O2 (racemic) [Compound 8f, 3-(2-Methyl-4-oxo-5,6-dihydro-2H-2,6-methanobenzo[g][1,3,5]oxadiazocin-3(4H)-yl)-N-(pyridin-3-ylmethyl)benzamide] |
| < 5.00 | CC12CC(NC(=O)N1c1cccc(C(=O)NCc3ccco3)c1)c1ccccc1O2 (racemic) [Compound 8g, N-(Furan-2-ylmethyl)-3-(2-methyl-4-oxo-5,6-dihydro-2H-2,6-methanobenzo[g][1,3,5]oxadiazocin-3(4H)-yl)benzamide] |
| < 5.00 | CC12CC(NC(=O)N1c1cccc(C(=O)NC3CC3)c1)c1ccccc1O2 (racemic) [Compound 8h, N-Cyclopropyl-3-(2-methyl-4-oxo-5,6-dihydro-2H-2,6-methanobenzo[g][1,3,5]oxadiazocin-3(4H)-yl)benzamide] |
| < 5.00 | CN(Cc1ccccc1)C(=O)c1cccc(N2C(=O)NC3CC2(C)Oc2ccccc23)c1 (racemic) [Compound 8i, N-Benzyl-N-methyl-3-(2-methyl-4-oxo-5,6-dihydro-2H-2,6-methanobenzo[g][1,3,5]oxadiazocin-3(4H)-yl)benzamide] |
| < 5.00 | CC12CC(NC(=O)N1c1cccc(C(=O)O)c1)c1ccccc1O2 (stereo not shown) [Compound 7, 3-(2-Methyl-4-oxo-5,6-dihydro-2H-2,6-methanobenzo[g][1,3,5]oxadiazocin-3(4H)-yl)benzoic acid] |
| < 5.00 | CN1C(=O)N(c2cccc(C(=O)N3CCc4ccccc4C3)c2)C2(C)CC1c1ccccc1O2 (stereo not shown) [Compound 9, 2,5-Dimethyl-3-(3-(1,2,3,4-tetrahydroisoquinoline-2-carbonyl)phenyl)-5,6-dihydro-2H-2,6-methanobenzo[g][1,3,5]oxadiazocin-4(3H)-one] |
| < 5.00 | C[C@@]12C[C@@H](NC(=O)N1c1cccc(C(=O)N3CCc4ccccc4C3)c1)c1ccccc1O2 [Compound 10a, (2R,6R)-2-Methyl-3-(3-(1,2,3,4-tetrahydroisoquinoline-2-carbonyl)phenyl)-5,6-dihydro-2H-2,6-methanobenzo[g][1,3,5]oxadiazocin-4(3H)-one] |
| < 5.00 | C[C@@]12C[C@@H](NC(=O)N1c1cccc(C(=O)NCc3ccc(Br)cc3)c1)c1ccccc1O2 [Compound 10b, N-(4-Bromobenzyl)-3-((2R,6R)-2-methyl-4-oxo-5,6-dihydro-2H-2,6-methanobenzo[g][1,3,5]oxadiazocin-3(4H)-yl)benzamide] |
| 5.00 to 6.00 | C[C@]12C[C@H](NC(=O)N1c1cccc(C(=O)N3CCc4ccccc4C3)c1)c1ccccc1O2 [Compound 10c, (2S,6S)-2-Methyl-3-(3-(1,2,3,4-tetrahydroisoquinoline-2-carbonyl)phenyl)-5,6-dihydro-2H-2,6-methanobenzo[g][1,3,5]oxadiazocin-4(3H)-one] |
| < 5.00 | C[C@]12C[C@H](NC(=O)N1c1cccc(C(=O)NCc3cc(Br)cc(Br)c3)c1)c1ccccc1O2 [Compound 10d, N-(3,5-Dibromobenzyl)-3-((2S,6S)-2-methyl-4-oxo-5,6-dihydro-2H-2,6-methanobenzo[g][1,3,5]oxadiazocin-3(4H)-yl)benzamide] |
| < 5.00 | CC12CC(NC(=O)N1c1cccc(-c3cccc(C#N)c3)c1)c1ccccc1O2 (stereo not shown) [Compound 15a, 3′-(2-Methyl-4-oxo-5,6-dihydro-2H-2,6-methanobenzo[g][1,3,5]oxadiazocin-3(4H)-yl)-[1,1′-biphenyl]-3-carbonitrile] |
| < 5.00 | CC12CC(NC(=O)N1c1cccc(-c3ccco3)c1)c1ccccc1O2 (stereo not shown) [Compound 15b, 3-(3-(Furan-2-yl)phenyl)-2-methyl-5,6-dihydro-2H-2,6-methanobenzo[g][1,3,5]oxadiazocin-4(3H)-one] |
| < 5.00 | CN1C(=O)N(c2cccc(-c3ccco3)c2)C2(C)CC1c1ccccc1O2 (stereo not shown) [Compound 16, 3-(3-(Furan-2-yl)phenyl)-2,5-dimethyl-5,6-dihydro-2H-2,6-methanobenzo[g][1,3,5]oxadiazocin-4(3H)-one] |
| < 5.00 | CC12CC(NC(=O)N1c1cccc(CNc3cccc(C(F)(F)F)c3)c1)c1ccccc1O2 (stereo not shown) [Compound 19, 2-methyl-3-(3-(((3-(trifluoromethyl)phenyl)amino)methyl)phenyl)-5,6-dihydro-2H-2,6-methanobenzo[g][1,3,5]oxadiazocin-4(3H)-one] |
| < 5.00 | CC12CC(NC(=O)N1c1cccc(C(=O)N3CCc4ccccc4C3)c1)c1cc(Br)ccc1O2 (stereo not shown) [Compound 25a, 8-Bromo-2-methyl-3-(3-(1,2,3,4-tetrahydroisoquinoline-2-carbonyl)phenyl)-5,6-dihydro-2H-2,6-methanobenzo[g][1,3,5]oxadiazocin-4(3H)-one] |
| < 5.00 | CC12CC(NC(=O)N1c1cccc(C(=O)N3CCc4ccccc4C3)c1)c1cc(C(F)(F)F)ccc1O2 (stereo not shown) [Compound 25b, 2-Methyl-3-(3-(1,2,3,4-tetrahydroisoquinoline-2-carbonyl)phenyl)-8-(trifluoromethyl)-5,6-dihydro-2H-2,6-methanobenzo[g][1,3,5]oxadiazocin-4(3H)-one] |
| 5.00 to 6.00 | CC12CC(NC(=O)N1c1cccc(C(=O)N3CCc4ccccc4C3)c1)c1cc(Cl)ccc1O2 (stereo not shown) [Compound 25c, 8-Chloro-2-methyl-3-(3-(1,2,3,4-tetrahydroisoquinoline-2-carbonyl)phenyl)-5,6-dihydro-2H-2,6-methanobenzo[g][1,3,5]oxadiazocin-4(3H)-one] |
| 5.00 to 6.00 | CC12CC(NC(=O)N1c1cccc(C(=O)N3CCc4ccccc4C3)c1)c1cc(F)ccc1O2 (stereo not shown) [Compound 25d, 8-Fluoro-2-methyl-3-(3-(1,2,3,4-tetrahydroisoquinoline-2-carbonyl)phenyl)-5,6-dihydro-2H-2,6-methanobenzo[g][1,3,5]oxadiazocin-4(3H)-one] |
| < 5.00 | CC12CC(NC(=O)N1c1cccc(C(=O)N3CCc4ccccc4C3)c1)c1cccc(Br)c1O2 (stereo not shown) [Compound 25f, 10-Bromo-2-methyl-3-(3-(1,2,3,4-tetrahydroisoquinoline-2-carbonyl)phenyl)-5,6-dihydro-2H-2,6-methanobenzo[g][1,3,5]oxadiazocin-4(3H)-one] |
